System: BALB/c mice
Assay: IMQ (imiquimod) cream-induced psoriasis mouse model
Format: in vivo
Details: male BALB/c mice, 15 mg/kg intragastric, twice daily
Procedure: BALB/c mice, male, 8 weeks old, SPF grade, provided by Shanghai Lingchang Biotechnology Co., Ltd.
In the drawings: • Group 1 Vaseline-Topical Vehicle P.O indicates a normal control group (vehicle group). • Group 2 IMQ+Vehicle P.O indicates a model control group (vehicle group). • Group 3 IMQ+Dex-Topical indicates a positive control group (dexamethasone). • Group 4 IMQ+A 15 mg/kg P.O indicates a compound group (A, 15 mg/kg, intragastric administration). • Group 5 IMQ+B 15 mg/kg P.O indicates a compound group (B, 15 mg/kg, intragastric administration).
First, 50 mice were randomly divided into 5 groups based on body weight: compound group 1—normal control group (vehicle group); compound group 2—model control group (vehicle group); compound group 3—positive control group (dexamethasone); compound group 4 (compound A, 15 mg/kg, intragastrically administered); compound group 5 (compound B, 15 mg/kg, intragastrically administered). On day 0 of the experiment, the dorsal hair of mice in each group was shaved, removing approximately 2 cm*3 cm area of hair. From day 1 to day 7 of the experiment, except for the normal control group, each mouse received an application of 62.5 mg of 5% IMQ cream on the shaved dorsal area and 20.0 mg of 5% IMQ cream on both sides of the right ear. The normal control group received an application of Vaseline. From day 1 to day 8 of the experiment, two hours before IMQ cream stimulation, the above groups were treated with corresponding drugs. The mice were weighed and shaved prior to administration, which was recorded as day 0. The mice were administered drugs from day 1 to day 8, twice daily.
• 1.5.1. Body weight and rate of change: The body weight was recorded, and the rate of change in body weight was calculated. The results are shown in FIG. 1 (presented as Mean±SEM, where *P<0.05, **P<0.01, ***P<0.001, V.S. model control group, Two-way ANOVA, Bonferroni posttests, n=10). • 1.5.2. Right ear thickness measurement: The thickness of the right ear of animals in each group was measured and recorded using a micrometer. The results are shown in FIG. 2 (Note: data presented as Mean±SEM, where *P<0.05, **P<0.01, ***P<0.001, V.S. model control group, Two-way ANOVA, Bonferroni posttests, n=10; data presented as Mean±SEM, where #P<0.5, ##P<0.01, ###P<0.001, V.S. Group 4, Two-way ANOVA, Bonferroni posttests, n=10) • 1.5.3. Dorsal skin scoring: On days 1, 3, 5, and 7, a representative photograph was taken for each group, and clinical scoring of the dorsal skin was performed. The clinical scoring criteria are shown in Table 1, and the results are shown in FIG. 3 (data presented as Mean±SEM, where *P<0.05, **P<0.01, ***P<0.001, V.S. model control group, Two-way ANOVA, Bonferroni posttests, n=10; data presented as Mean±SEM, where #P<0.5, ##P<0.01, ###P<0.001, V.S. Group 4, Two-way ANOVA, Bonferroni posttests, n=10).
• 1.5.4. Spleen weight: On day 8, mice in each group were euthanized by CO2 inhalation, and the spleens were rapidly excised. Right ear and dorsal skin samples were also collected. One-third of the dorsal skin, spleen, and right ear tissues were fixed in 10% neutral formalin fixative for preparation of paraffin sections and HE staining. Another one-third of the dorsal skin was snap-frozen in liquid nitrogen for ELISA analysis. The remaining one-third of the dorsal skin was snap-frozen in liquid nitrogen and stored in a −80° C. freezer for future use. The results are shown in FIG. 4 (Note: data presented as Mean±SEM, where *P<0.05, **P<0.01, ***P<0.001, V.S. model control group, One-way ANOVA, Bonferroni posttests, n=10; data presented as Mean±SEM, where #P<0.5, ##P<0.01, ###P<0.001, V.S. Group 4, One-way ANOVA, Bonferroni posttests, n=10). • 1.5.5. Dorsal skin pathology scoring: Dorsal skin tissue samples were collected from mice and fixed in 10% neutral formalin fixative for 48 hours. The tissues were then degreased in 75% ethanol for 72 hours, with daily medium changes. […]

In the case of `COc1cc2nn([C@H]3CC[C@](C)(O)CC3)cc2cc1NC(=O)c1cccc(C)[n+]1[O-]` [Compound B, 2-((2-(trans-4-hydroxy-cis-4-methylcyclohexyl)-6-methoxy-2H-indazol-5-yl)carbamoyl)-6-methylpyridine 1-oxide], the “disease symptoms in the keratin, epidermis, and dermis of the dorsal skin” value (HE staining of dorsal skin, compared to model control group) is reported as “alleviation”, the “dorsal skin pathological scores” value (HE staining of dorsal skin, compared to model control group, FIG. 5) is reported as “significant reduction” and the psoriasis symptoms (compared to model control group) is reported as “significant reduction”. For the same compound, the “weight loss (body weight and rate of change)” value (day 1 to day 8, compared to model control group, FIG. 1) was “significantly inhibited”, the “increase in right ear thickness” value (day 1 to day 8, compared to model control group, FIG. 2) was “significantly inhibited” and the “PASI clinical scores (dorsal skin: erythema, crusting, skin thickness, score 0-4)” value (scored on days 1, 3, 5, 7, compared to model control group, FIG. 3) was “significant reduction”. For the same compound, the “increase in spleen weight (spleen enlargement)” value (spleen excised on day 8, compared to model control group, FIG. 4) was “significantly inhibited”.

From patent publication US20250161283A1, “USE OF INDAZOLE COMPOUND FOR TREATING PSORIASIS” (WUHAN CREATERNA SCIENCE AND TECHNOLOGY CO., LTD., priority 2022, published 2025)
